# In PMC10102062, “Effects of DPTQ, a novel positive allosteric modulator of the dopamine D1 receptor, on spontaneous eye blink rate and spatial working memory in the nonhuman primate” (Psychopharmacology, 2023):
# Key:
# rhesus monkeys [1] = test system: rhesus monkeys; design: method as in Bruns et al., [2018]; conditions: smaller response than SKF82958; ref Bruns et al., [2018]; cited from earlier work
# D2 receptor = D2 receptor (Homo sapiens, UniProt P14416); design: method as in previously published data; conditions: at 10 µM, functional and binding studies; ref previously published data; cited from earlier work
# [2] = test system: pCREB and the AMPA receptor pGluR1; design: method as in Bruns et al. [2018]; conditions: hD1 mouse; similar to SKF82958; ref Bruns et al. [2018]; cited from earlier work
# adult human volunteers = test system: adult human volunteers; design: method as in Wilbraham et al. [2021]; conditions: clinical studies; ref Wilbraham et al. [2021]; cited from earlier work
# rhesus monkeys [3] = experiment: Spontaneous eye blink rate, cumulative dosing; assay type: in vivo, rhesus monkey
# Text: Eleven 5–6-year-old, male rhesus monkeys (Chengdu Ping, An Animal Breeding and Research Base, Sichuan Province, China) with an average weight of 4.83 kg were included in the study. The animals were randomly divided into three groups, DPTQ higher cumulative dose group (n = 4); DPTQ lower cumulative dose group (n = 3); and vehicle (20% Captisol (CyDex Pharmaceuticals, Inc., KS) in NaPO4 buffer) group (n = 4). The D1 agonist SKF82958 was included as a positive control; the results for this compound (not shown here) were recently published together with data for a different D1PAM (DETQ, see Bruns et al. [2018]). The D1 selective antagonist SCH39166 hydrobromide (Cat No.: 2299, Batch No.: 3A/129719) was purchased from Tocris, MN, and was prepared in Millipore pure water with the injection volume 0.2 ml/kg. The D1 antagonist was dosed 15 min before vehicle or DPTQ (n = 4 animals per group).
# Spontaneous eye blinking rate was measured during observational experiments conducted in a specially constructed monkey chair (Mason et al. [2019]). A U-shaped neck plate that helped to fixate the orientation of the head was used to facilitate observation of eye blink rate response. A compact video camera (Panasonic/wv-cp480/CH) on a tripod was positioned in front of the seated monkey. Two camera images were combined by video collector (Color QUAD system) and transferred to the EthoVision software (Noldus, Leesburg, VA) on the computer for on-line viewing and recording.
# Two weeks before testing, monkeys were trained daily to sit in the monkey chair for two 2-h periods with food reward. During post-training test sessions conducted between 9:00 am and 4:30 pm every day, each monkey was studied for nine consecutive 15-min components. Each 15-min block consisted of a 10-min habituation period followed by a 5-min period during which eye blinking was counted. […] Observers blind to the treatment conditions later scored each 5-min videotaped session. An eye blink was defined as a visible, rapid opening and closing of the eyelid. Two observers independently confirmed the measurement with reliability > 90%.
# The effects of different D1 ligands on spontaneous eye blink rate were studied by a cumulative dosing procedure (Jutikiewicz and Bergman 2004). Active compound or vehicle (Captisol 20% w/v NaPO4 buffer) was administered after obtaining two baseline eye blink recordings. The ligand was given in random order to different monkeys of each group as described above. To study dose response and time course, incremental doses of DPTQ were administrated at the end of 15-min components of each test session.
# DPTQ (free base, see Hao et al. [2019]) was supplied by Eli Lilly Company. Captisol (Lot No.: NC-04A-05034) was prepared as follows: Captisol 20% w/v NaPO4 buffer 25 mM, pH 8. The injection volume for DPTQ was 0.5 ml/kg IM. DPTQ at 0.1 mg/kg, 0.5 mg/kg, and 1 mg/kg were dosed as clear solution, while the 5 mg/kg and 10 mg/kg doses were formulated as fine suspensions. The above vehicle solution was stored at 4℃ in a refrigerator and restored to room temperature before use. When preparing DPTQ fresh daily, a portion of the vehicle (20% Captisol) was added to the compound and stirred to wet, followed by addition of the remainder of the vehicle and mixing until the solution became homogeneous. The suspension was then sonicated on an ice bath for 40 min to reduce particle size. Animals were dosed while in the chair.
# Results for each monkey were expressed as the rate of eye blinking (blinks per minute) averaged over each 5-min testing epoch. The effects of vehicle and D1 PAM on eye blinking were averaged for each group of monkeys and expressed as mean ± SE. The effects of DPTQ and vehicle were analyzed with two-way ANOVA (D1 PAM and time) followed by Bonferroni post hoc test (GraphPad Prism, San Diego CA).
# Chain of D2 receptor (P14416 whole entry): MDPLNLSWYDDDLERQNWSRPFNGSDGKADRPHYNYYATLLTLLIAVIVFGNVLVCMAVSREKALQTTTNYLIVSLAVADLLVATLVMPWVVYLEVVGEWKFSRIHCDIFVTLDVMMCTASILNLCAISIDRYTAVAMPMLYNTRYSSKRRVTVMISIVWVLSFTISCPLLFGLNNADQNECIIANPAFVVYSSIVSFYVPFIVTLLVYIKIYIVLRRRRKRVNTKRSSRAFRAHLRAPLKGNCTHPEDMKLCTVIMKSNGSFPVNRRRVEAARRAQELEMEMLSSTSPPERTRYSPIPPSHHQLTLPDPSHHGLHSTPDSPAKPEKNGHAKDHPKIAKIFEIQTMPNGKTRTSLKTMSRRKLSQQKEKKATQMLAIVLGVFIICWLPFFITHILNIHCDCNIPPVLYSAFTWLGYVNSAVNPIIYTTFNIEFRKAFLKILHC
structure (smiles),measurement,setting,value
C[C@H]1c2cccc(C(C)(C)O)c2C[C@H](CO)N1C(=O)Cc1c(Cl)cccc1Cl [DETQ],Spontaneous eye blink rate,rhesus monkeys [1],enhanced spontaneous eye blink rate
same,Activity at the D2 receptor,D2 receptor,no activity
same,Brain levels of pCREB and pGluR1,[2],enhances
"C[C@H]1c2cccc(CCC(C)(C)O)c2C[C@H](CO)N1C(=O)Cc1c(Cl)cccc1Cl [mevidalen, 2-(2,6-dichlorophenyl)-1-((1S,3R)-5-(3-hydroxy-3-methylbutyl)-3-(hydroxymethyl)-1-methyl-3,4-dihydroisoquinolin-2(1H)-yl)ethan-1-one]",Activity at the D2 receptor,D2 receptor,no activity
same,Oral movement with tongue protrusion,adult human volunteers,not reported
"CN1CCc2cc(Cl)c(O)cc2[C@H]2c3ccccc3CC[C@@H]21 [SCH39166, reference compound]",Duration of eye blink reduction/sedation,rhesus monkeys [3]; 0.03 mg/kg IM alone,about 15 min
same,"Spontaneous eye blink rate, antagonist alone",rhesus monkeys [3]; 0.03 mg/kg IM alone,brief reduction in eye blink rate
same,Visual observation of sedation,rhesus monkeys [3]; 0.03 mg/kg IM alone,slightly sedated
same,Effect on DPTQ-induced increase in spontaneous eye blink rate,"rhesus monkeys [3]; SCH39166 pretreatment, high cumulative doses of DPTQ, n = 4/group",blocks
